Consider one compound from ChEMBL document CHEMBL2406977, “The discovery of PLK4 inhibitors: (E)-3-((1H-Indazol-6-yl)methylene)indolin-2-ones as novel antiproliferative agents” (J Med Chem, 2013).

Molecules are shown by their SMILES.

Series [1] addresses T1, Receptor-type tyrosine-protein kinase FLT3 (Homo sapiens, UniProt P36888).
T1 sequence (P36888 whole entry): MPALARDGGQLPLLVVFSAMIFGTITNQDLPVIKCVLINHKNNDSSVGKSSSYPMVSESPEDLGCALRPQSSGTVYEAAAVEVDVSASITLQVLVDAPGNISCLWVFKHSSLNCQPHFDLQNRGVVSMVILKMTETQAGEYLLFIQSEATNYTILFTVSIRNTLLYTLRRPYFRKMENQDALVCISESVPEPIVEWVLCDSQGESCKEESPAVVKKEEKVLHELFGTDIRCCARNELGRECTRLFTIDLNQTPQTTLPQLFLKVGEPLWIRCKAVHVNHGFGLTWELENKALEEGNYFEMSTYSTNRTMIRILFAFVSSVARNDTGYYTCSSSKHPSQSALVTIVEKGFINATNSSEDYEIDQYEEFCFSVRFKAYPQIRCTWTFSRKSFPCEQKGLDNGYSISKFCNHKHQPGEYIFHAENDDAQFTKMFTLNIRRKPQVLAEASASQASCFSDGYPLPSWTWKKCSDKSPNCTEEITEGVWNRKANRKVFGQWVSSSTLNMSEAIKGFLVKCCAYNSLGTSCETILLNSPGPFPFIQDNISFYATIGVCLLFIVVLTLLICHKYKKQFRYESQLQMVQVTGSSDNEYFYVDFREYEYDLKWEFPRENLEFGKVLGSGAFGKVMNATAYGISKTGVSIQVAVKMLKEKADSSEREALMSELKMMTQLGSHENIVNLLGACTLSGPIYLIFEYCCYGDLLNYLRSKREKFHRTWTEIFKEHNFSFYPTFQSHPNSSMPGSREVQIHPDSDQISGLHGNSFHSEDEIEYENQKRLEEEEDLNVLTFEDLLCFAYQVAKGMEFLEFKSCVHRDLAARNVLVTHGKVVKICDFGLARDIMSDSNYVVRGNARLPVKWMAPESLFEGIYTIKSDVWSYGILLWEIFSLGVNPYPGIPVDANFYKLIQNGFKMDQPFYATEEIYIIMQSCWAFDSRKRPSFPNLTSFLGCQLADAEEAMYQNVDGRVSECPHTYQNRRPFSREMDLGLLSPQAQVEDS
The series is described as follows: Inhibition of FLT3 (unknown origin) by FRET-based homogeneous assay.

The subject of series [2] is SK-BR-3. The series is described as follows: Antiproliferative activity against human SKBR3 cells assessed as growth inhibition after 5 days by SRB assay. The class given is functional. The following applies: SK-BR-3, 120 h.
A short description of series [3]: Permeability of the compound at pH 7.4 by PAMPA. The following applies: read-out: permeability. The class given is ADME.
In series [4] the test system is HCC1954. Kind of series: Antiproliferative activity against human HCC1954 cells assessed as growth inhibition after 5 days by SRB assay. The note with it: HCC1954, 120 h. The class given is functional.
The subject of series [5] is Mus musculus. The series is described as follows: Toxicity in human MDA-MB-468 cells xenografted CB-17 SCID mouse assessed as reduction in body weight at 25 mg/kg, ip qd for 21 days. The class given is organism-based. Details: dose 25 mg/kg, route intraperitoneal. The following applies: in vivo, 504 h.
For series [6], the target named is Cytochrome P450 2D6 (Homo sapiens, UniProt P10635). The series is described as follows: Inhibition of CYP2D6 (unknown origin) using AMMC as substrate after 30 mins by fluorescence assay. In kind it is ADME.
Sequence of Cytochrome P450 2D6 (P10635 whole entry): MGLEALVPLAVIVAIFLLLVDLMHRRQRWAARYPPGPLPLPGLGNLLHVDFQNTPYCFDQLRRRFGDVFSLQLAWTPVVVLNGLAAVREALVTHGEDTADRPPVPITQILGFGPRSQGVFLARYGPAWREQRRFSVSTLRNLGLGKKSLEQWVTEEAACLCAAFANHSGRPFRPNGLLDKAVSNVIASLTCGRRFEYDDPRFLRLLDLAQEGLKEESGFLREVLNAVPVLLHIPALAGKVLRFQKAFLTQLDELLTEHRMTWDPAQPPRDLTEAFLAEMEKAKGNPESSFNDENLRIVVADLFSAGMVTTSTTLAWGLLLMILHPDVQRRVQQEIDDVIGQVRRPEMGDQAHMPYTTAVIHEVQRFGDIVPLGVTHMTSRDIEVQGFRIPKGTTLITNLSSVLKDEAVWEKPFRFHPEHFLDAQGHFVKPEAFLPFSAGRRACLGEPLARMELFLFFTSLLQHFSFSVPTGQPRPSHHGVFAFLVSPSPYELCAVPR
Series [7] deals with T2, Aurora kinase A (Homo sapiens, UniProt O14965).
T2 sequence (O14965 whole entry): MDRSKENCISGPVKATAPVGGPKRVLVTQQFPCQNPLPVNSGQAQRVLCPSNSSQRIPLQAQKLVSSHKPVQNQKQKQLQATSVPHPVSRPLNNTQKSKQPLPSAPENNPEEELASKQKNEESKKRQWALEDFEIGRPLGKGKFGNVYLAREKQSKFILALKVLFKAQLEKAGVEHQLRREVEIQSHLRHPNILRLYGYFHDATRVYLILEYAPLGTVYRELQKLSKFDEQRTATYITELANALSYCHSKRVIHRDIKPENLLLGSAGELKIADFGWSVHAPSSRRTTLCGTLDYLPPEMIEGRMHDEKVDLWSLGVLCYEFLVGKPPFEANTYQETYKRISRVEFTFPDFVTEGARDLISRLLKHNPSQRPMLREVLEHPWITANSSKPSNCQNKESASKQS
The series is described as follows: Inhibition of aurora A (unknown origin) by FRET-based homogeneous assay.

The target in series [8] is Serine/threonine-protein kinase PLK3 (Homo sapiens, UniProt Q9H4B4). The series is described as follows: Inhibition of PLK3 (unknown origin) by FRET-based homogeneous assay.
Sequence of Serine/threonine-protein kinase PLK3 (Q9H4B4 whole entry): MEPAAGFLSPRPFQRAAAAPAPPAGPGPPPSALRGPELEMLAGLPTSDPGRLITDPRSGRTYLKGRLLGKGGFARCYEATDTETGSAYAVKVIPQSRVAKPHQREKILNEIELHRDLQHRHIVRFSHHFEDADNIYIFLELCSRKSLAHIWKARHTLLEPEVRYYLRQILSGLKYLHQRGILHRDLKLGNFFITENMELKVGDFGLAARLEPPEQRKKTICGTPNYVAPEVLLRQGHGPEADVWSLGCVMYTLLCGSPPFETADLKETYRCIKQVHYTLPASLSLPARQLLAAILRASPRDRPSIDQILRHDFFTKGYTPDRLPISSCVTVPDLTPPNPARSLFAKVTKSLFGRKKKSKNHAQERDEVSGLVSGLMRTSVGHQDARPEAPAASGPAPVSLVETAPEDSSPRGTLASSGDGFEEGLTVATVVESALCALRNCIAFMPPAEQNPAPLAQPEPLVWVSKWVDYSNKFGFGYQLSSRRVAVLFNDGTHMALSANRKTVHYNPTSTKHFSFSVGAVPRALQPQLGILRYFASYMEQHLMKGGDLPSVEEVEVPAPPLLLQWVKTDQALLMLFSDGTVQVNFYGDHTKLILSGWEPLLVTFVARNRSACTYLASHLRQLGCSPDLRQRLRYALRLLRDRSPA
In series [9] the target is T3, Serine/threonine-protein kinase PLK4 (Homo sapiens, UniProt O00444).
T3 sequence (O00444 whole entry): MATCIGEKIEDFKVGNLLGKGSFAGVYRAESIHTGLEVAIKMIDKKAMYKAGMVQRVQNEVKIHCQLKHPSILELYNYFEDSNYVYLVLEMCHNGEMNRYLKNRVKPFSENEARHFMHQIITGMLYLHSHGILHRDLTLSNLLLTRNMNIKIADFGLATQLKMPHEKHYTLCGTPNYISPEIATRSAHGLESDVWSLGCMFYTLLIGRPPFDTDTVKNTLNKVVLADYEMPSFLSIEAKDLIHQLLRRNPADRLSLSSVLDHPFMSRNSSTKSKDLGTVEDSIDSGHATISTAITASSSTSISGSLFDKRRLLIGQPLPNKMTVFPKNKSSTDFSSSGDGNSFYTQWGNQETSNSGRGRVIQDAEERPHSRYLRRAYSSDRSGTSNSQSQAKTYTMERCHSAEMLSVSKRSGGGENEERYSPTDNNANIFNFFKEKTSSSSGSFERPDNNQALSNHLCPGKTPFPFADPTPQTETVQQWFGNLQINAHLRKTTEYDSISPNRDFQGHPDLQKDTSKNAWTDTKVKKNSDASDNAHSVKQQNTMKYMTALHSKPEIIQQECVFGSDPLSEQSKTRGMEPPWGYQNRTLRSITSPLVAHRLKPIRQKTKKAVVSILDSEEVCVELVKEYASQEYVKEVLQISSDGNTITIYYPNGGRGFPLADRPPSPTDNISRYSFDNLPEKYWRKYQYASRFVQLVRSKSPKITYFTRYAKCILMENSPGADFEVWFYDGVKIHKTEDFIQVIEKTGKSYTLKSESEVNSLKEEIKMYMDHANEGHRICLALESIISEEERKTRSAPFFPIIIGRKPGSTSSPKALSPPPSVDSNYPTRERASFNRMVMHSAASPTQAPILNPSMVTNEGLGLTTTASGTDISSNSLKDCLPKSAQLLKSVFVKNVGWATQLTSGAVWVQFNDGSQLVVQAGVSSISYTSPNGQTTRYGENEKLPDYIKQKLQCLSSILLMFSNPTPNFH
The series is described as follows: Inhibition of N-terminal GST-tagged human PLK4 (1 to 391 amino acids) expressed in Escherichia coli using TMB as substrate after 30 mins by indirect ELISA assay.

Series [10] has as its system MDA-MB-468. The series is described as follows: Antitumor activity against human MDA-MB-468 cells xenografted in CB-17 SCID mouse assessed as reduction in tumor size at 25 mg/kg, ip qd for 21 days relative to control. The class given is functional. The following applies: MDA-MB-468, ip, 504 h, route intraperitoneal, read-out: TGI.
The nature of series [11]: Plasma protein binding in mouse at […] after 4 hrs by equilibrium dialysis method. The following applies: read-out: PPB. The class given is ADME, cell-free.

`COc1ccc2c(c1)/C(=C\c1ccc3c(/C=C/c4ccc(N5CCN(C)CC5)nc4)n[nH]c3c1)C(=O)N2`: the IC50 in series [1] is 180 nM; in series [6], more than 10000 nM; in [7], 370 nM; in [8] it was more than 10000 nM; in series [9], 0.61 nM. Moreover, the GI50 in [2] and in series [4] was 2300 nM in each case. For the same compound, the Papp in [3] turned out to be 164 ×10⁻⁶ cm/s. The Activity entry in series [5] is listed as “Non-toxic”. The inhibition in vivo at 25 mg/kg in series [10] amounted to 70%. Moreover, the fraction unbound at 4 h in series [11] came out at 0.01.
